Results taken from article PMC8070004, “Isorhamnetin Ameliorates Dry Eye Disease via CFTR Activation in Mice” (International Journal of Molecular Sciences, 2021).

How the values were obtained:
[1] = biological target: T1, human ΔF508-CFTR (Homo sapiens, UniProt P13569, DEL508-508); assay: Apical membrane current in FRT cells expressing low-temperature-rescued ΔF508-CFTR; format: cell-based
T1 construct: expressed in transfected cells; host or cells: FRT (Fisher rat thyroid) cells, provided by Dr. Alan Verkman; 27 °C for 24 h
Protocol: (§1) Snapwell inserts containing CFTR-expressing FRT and T84 cells were mounted in Ussing chambers (Physiologic Instruments, San Diego, CA, USA). Forskolin, isorhamnetin, and CFTRinh-172 were added to the apical and basolateral bath solution. For FRT cells, the apical bath was filled with a half-Cl^− solution and the basolateral bath was filled with HCO^3--buffered solution to generate transepithelial Cl^− gradient (apical, 64 mM; basolateral, 129 mM), and the basolateral membrane was permeabilized with 250 µg/mL amphotericin B. For T84 cells, symmetrical HCO^3--buffered solutions were used, and ENaC was inhibited with amiloride (100 µM). All cells were bathed for a 20-min stabilization period and aerated with 95% O2/5% CO2 at 37 °C. Apical membrane current and short-circuit current were measured with an EVC4000 Multi-Channel V/I Clamp (World Precision Instruments, Sarasota, FL, USA) and recorded using PowerLab 4/35 (AD Instruments, Castle Hill, Australia). Data were collected and analyzed with ADInstruments acquisition software Labchart Pro 7 software. The sampling rate was 4 Hz.

[2] = biological target: T2, CFTR (Mus musculus, UniProt P26361); assay: Open-circuit ocular surface potential difference (PD) in CD-1 mice; format: in vivo; details: 30 μM isorhamnetin, amiloride and low Cl- perfusion
T2 construct: from tissue; host or cells: ocular surface of anesthetized CD-1 mice (in vivo)

[3] = tested on: intracellular cAMP; assay: cAMP assay in FRT cells; format: cell-based, rat; details: 30 µM
Protocol: FRT cells grown on 96-well culture plates were washed three times with PBS at 37 °C and then incubated in induction buffer from a cAMP assay kit (cAMP-Glo Assay; Promega, Madison, WI, USA) at 37 °C containing 100 μM 3-isobutyl-1-methylxanthine (IBMX) for 10 min in the absence or presence of forskolin or isorhamnetin. Cytosolic cAMP was measured using the kit according to the manufacturer’s protocol.

[4] = biological target: T3, ENaC (Homo sapiens, UniProt P37088+P51168+P51170); assay: ENaC short-circuit current in T84 cells; format: cell-based; details: 30 μM applied 10 min prior to 100 µM amiloride
T3 construct: endogenous in cells; host or cells: T84 cells (provided by Dr. Min Goo Lee)
Protocol: as §1

[5] = biological target: WT-CFTR (Homo sapiens, UniProt P13569); assay: Apical membrane current in WT-CFTR expressing FRT cells; format: cell-based; design: expressed in transfected cells; host or cells: FRT (Fisher rat thyroid) cells, provided by Dr. Alan Verkman
Protocol: as §1

[6] = tested on: corneal epithelial (CorE) cells; assay: MTS cell viability assay in CorE cells; format: cell-based, human; details: 48 h; isorhamnetin 30 μM, Triton X-100 0.01%
Protocol: Immortalized human CorE [47] and immortalized human ConjE (Innoprot, Bizkaia, Spain) cells were plated on 96-well microplates. After 24 h incubation, cells were treated with 30 μM isorhamnetin or 0.01% Triton X-100 and then they were incubated for two days. An equal amount of DMSO was added to the control. The culture medium and the compounds were changed every 12 h. To assess cell proliferation, after 48 h of incubation with the compound, the cells were reincubated with MTS for 1 h. The soluble formazan produced by cellular reduction of MTS was quantified by measuring the absorbance at 490 nm with Infinite M200 (Tecan, Grödig, Austria) microplate reader. MTS assay was done using CellTiter 96 AQueous One Solution Cell Proliferation Assay kit (Promega, Madison, WI, USA).

[7] = biological target: T4, human CFTR (Homo sapiens, UniProt P13569); assay: YFP quenching assay in CHO-K1 cells expressing CFTR and halide sensor YFP; format: cell-based; details: isorhamnetin applied 10 min prior to I- addition
T4 construct: expressed in transfected cells; host or cells: CHO-K1
Protocol: CHO cells expressing wild-type CFTR with the halide sensor YFP-H148Q/I152L were plated in 96-well, black-walled microplates (Corning Inc., Corning, NY, USA) at a density of 2 × 10^4 cells per well. CHO-WT-CFTR-YFP cells were incubated for 48 h at 37 °C. Assays were done using FLUO star Omega microplate reader (BMG Labtech, Ortenberg, Germany) and MARS Data Analysis Software (BMG Labtech). Briefly, each well of a 96-well plate was washed three times in PBS (200 µL/wash). Then, 100 µL PBS was added to each well. Test compounds (1 µL) were added to each well at final concentration of 25 µM. After 10 min, 96-well plates were transferred to the microplate reader preheated to 37 °C for fluorescence assay. Each well was assayed individually for CFTR-mediated I^- influx by recording fluorescence continuously (400 ms per point) for 2 s (baseline). Then, 100 µL of 140 mM I^- solution were added at 2 s and then YFP fluorescence was recorded for 14 s. Initial iodide influx rate was determined from the initial slope of fluorescence decrease, by nonlinear regression, following infusion of iodide.

[8] = tested on: scopolamine-induced dry eye mice; assay: Scopolamine-induced dry eye mouse model (corneal fluorescein staining, tear volume); format: in vivo; details: 30 µM, three times a day for 10 days
Protocol: Tear volume was measured using phenol red threads (Zone-Quick, Oasis Medical, Glendora, CA, USA) by placing them in the lateral canthi of normal CD-1 or dry eye model-treated BL6 mice for 10 s using forceps. Tear volume was measured using a Vernier caliper as the length of thread wetting under a microscope. For normal CD-1 mice, serial measurements were done to evaluate compound pharmacodynamics compared to the vehicle after topical application of a single, 2.5-μL drop of compound formulations containing 20 μM forskolin, 30 μM isorhamnetin, or 20 μM CFTRinh-172 in PBS with 0.1% DMSO.
To assess corneal epithelial disruption, 5 μL of fluorescein dye (1%) were applied to the ocular surface of mice. Photographs of the eye were taken with a digital camera. Each cornea was scored from 0 to 5 according to the Oxford scheme.
Eight-week-old C57BL/6 mice were used for this experiment. Experimental dry eye was induced by subcutaneous injection of 0.5 mg/100 μL scopolamine hydrobromide (Sigma-Aldrich, St. Louis, MO, USA) three times a day with a standard desiccating environment created by placing the mice in a chamber with a continuous air flow (15 L/min) in a room at 25 °C with an ambient humidity of 12%. […]

Sequence of WT-CFTR (P13569 whole entry): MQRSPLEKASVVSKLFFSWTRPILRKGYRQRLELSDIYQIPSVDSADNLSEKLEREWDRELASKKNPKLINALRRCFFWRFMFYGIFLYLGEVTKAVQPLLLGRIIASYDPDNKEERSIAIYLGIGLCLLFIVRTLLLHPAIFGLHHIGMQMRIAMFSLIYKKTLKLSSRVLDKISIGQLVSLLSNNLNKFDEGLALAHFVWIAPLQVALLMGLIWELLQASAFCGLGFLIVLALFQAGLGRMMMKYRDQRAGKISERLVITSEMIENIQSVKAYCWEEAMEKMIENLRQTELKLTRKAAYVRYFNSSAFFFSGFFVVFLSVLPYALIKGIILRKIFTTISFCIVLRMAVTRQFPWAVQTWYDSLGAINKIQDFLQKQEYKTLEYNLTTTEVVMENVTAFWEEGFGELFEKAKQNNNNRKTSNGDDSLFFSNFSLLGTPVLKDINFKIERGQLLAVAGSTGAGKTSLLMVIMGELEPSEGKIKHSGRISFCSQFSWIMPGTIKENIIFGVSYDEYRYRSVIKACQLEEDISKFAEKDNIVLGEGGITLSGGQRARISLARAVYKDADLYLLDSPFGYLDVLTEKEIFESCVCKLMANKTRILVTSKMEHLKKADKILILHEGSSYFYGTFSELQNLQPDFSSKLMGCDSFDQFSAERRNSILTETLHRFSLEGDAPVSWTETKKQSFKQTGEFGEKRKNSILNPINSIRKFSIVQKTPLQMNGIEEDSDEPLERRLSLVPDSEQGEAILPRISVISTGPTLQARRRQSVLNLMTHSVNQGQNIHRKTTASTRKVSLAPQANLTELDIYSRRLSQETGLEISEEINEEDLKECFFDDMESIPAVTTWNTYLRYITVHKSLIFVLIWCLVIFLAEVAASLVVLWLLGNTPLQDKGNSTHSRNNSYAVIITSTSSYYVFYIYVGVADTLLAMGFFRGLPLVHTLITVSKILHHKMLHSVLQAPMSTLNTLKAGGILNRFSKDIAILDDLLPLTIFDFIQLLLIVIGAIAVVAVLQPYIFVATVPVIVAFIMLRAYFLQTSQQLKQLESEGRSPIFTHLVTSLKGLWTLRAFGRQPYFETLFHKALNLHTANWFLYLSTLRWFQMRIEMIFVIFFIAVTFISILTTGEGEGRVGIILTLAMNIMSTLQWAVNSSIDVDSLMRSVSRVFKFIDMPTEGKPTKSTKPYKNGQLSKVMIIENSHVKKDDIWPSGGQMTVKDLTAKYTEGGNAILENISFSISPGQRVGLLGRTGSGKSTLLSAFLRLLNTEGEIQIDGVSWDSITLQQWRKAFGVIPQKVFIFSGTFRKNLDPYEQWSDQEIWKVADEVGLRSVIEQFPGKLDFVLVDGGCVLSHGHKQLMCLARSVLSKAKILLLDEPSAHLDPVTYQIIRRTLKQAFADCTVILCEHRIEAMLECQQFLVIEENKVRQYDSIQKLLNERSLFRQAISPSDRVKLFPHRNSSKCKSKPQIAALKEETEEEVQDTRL
T1 sequence (P13569 with tags, fused parts or gaps DEL508-508): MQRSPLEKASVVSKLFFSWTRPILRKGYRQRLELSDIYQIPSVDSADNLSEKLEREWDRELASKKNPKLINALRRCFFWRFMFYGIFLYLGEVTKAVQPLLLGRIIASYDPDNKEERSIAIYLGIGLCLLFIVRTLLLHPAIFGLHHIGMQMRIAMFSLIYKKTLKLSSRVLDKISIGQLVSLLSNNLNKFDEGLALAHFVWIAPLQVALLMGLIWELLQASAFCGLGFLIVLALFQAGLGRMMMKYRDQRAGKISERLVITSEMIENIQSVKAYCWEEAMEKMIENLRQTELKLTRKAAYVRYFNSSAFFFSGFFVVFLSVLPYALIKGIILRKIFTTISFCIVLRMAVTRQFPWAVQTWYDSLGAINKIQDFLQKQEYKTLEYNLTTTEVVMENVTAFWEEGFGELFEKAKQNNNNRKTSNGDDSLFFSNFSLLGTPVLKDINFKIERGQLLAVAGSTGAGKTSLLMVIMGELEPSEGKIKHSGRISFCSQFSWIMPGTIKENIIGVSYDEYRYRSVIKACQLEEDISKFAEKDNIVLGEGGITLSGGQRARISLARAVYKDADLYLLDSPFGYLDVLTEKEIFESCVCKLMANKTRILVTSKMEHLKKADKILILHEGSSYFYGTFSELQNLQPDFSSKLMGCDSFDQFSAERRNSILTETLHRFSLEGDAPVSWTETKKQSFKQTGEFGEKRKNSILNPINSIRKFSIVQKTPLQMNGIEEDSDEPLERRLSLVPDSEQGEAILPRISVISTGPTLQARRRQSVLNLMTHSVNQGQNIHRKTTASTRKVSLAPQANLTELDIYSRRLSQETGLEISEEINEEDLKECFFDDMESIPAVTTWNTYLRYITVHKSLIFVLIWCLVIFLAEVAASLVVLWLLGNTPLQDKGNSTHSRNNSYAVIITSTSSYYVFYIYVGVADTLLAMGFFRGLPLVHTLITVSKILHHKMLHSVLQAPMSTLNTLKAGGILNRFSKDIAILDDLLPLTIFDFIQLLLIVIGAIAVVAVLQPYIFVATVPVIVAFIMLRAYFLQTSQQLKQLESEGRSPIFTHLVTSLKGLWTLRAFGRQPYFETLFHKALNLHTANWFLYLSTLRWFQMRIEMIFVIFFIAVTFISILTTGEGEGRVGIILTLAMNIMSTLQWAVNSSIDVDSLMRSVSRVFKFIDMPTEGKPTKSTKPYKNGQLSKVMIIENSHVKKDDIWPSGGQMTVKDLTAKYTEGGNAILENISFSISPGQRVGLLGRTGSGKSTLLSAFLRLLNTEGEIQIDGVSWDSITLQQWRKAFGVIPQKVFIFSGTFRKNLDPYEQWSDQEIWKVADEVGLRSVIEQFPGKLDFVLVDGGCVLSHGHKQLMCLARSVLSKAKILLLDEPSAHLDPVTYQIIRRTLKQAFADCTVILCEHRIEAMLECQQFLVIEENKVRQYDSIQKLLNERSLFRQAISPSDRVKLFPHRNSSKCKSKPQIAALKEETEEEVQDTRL
T3 sequence (P51168 whole entry): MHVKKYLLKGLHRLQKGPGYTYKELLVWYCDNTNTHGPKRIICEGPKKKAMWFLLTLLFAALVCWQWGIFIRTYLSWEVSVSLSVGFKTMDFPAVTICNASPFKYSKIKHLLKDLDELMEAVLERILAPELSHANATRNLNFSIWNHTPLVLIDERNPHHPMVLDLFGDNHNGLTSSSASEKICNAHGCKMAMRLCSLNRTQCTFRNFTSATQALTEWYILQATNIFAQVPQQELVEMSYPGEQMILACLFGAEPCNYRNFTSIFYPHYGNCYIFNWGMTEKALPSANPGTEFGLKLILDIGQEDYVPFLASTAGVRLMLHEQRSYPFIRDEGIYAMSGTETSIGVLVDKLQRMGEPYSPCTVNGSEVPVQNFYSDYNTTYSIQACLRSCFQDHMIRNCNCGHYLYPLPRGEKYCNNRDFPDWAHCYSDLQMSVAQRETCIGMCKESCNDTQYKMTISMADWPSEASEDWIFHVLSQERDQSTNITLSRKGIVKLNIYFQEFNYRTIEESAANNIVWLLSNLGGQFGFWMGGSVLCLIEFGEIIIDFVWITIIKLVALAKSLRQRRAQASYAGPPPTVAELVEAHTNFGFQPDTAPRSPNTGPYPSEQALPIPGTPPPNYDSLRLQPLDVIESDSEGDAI
T3 sequence (P37088 whole entry): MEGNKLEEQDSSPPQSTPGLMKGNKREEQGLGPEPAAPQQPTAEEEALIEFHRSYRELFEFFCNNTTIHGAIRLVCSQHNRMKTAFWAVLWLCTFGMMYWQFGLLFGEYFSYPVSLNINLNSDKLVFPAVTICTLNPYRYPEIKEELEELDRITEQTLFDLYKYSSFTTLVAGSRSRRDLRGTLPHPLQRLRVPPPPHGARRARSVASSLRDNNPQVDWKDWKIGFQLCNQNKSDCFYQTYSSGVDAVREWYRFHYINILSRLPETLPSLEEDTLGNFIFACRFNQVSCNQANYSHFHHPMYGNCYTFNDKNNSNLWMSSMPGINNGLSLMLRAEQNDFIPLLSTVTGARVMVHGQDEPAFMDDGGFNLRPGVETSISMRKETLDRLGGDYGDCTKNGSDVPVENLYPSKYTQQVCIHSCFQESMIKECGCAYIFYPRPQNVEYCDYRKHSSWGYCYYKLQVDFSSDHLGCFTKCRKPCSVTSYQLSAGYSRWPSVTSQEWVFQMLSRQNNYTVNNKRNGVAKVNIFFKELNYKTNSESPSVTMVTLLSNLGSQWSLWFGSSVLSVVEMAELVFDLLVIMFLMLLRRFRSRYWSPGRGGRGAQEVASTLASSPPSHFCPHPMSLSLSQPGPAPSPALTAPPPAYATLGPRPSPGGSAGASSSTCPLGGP
T3 sequence (P51170 whole entry): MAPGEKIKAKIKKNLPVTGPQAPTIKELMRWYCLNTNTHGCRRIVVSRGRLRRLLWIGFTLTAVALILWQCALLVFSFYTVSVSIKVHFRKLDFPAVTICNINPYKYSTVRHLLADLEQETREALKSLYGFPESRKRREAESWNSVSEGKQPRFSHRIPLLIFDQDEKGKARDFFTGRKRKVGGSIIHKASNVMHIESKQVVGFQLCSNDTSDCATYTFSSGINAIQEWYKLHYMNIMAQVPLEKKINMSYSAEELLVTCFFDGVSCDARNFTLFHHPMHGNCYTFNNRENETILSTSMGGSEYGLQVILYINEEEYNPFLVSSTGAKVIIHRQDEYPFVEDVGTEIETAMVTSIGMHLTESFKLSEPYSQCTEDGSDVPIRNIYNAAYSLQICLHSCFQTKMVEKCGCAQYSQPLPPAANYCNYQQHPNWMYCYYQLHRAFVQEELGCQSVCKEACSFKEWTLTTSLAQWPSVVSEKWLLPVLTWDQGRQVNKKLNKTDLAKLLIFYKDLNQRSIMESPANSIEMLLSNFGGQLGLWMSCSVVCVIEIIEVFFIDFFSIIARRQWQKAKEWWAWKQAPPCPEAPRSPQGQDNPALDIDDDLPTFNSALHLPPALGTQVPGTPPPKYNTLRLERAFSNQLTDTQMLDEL
T4 sequence (P13569 whole entry): as the sequence (P13569 whole entry) above

COc1cc(-c2oc3cc(O)cc(O)c3c(=O)c2O)ccc1O [isorhamnetin]
ΔF508-CFTR chloride current activated by 20 μM forskolin ([1]; 30 μM isorhamnetin): doubled | forskolin-induced ΔF508-CFTR chloride current ([1]; dose-dependent, ΔF508-CFTR rescued at 27 °C for 24 h): strongly potentiated | ocular surface PD [2]: significantly hyperpolarized | intracellular cAMP levels [3]: did not alter | ENaC function (short-circuit current) [4]: did not alter | EC50 [5]: 6.6 ± 1.1 µM | CFTR activation (apical membrane current) ([5]; 30 μM, current not further increased by 20 μM forskolin): fully activated | cell viability (MTS), CorE cells [6]: did not affect the cell viability | CFTR chloride channel activity (YFP quenching) [7]: significantly increased | corneal erosion (fluorescein staining) [8]: significantly reduced | tear volume in dry eye mice [8]: increased
